Measurements published in publication PMC8596838, “Xylose‐Configured Cyclophellitols as Selective Inhibitors for Glucocerebrosidase” (Chembiochem, 2021).

Columns and labels:
Format in all cases: biochemical
Details in all cases: 30 min, pH 6.0
GBA3 = target: T1, GBA3 (Homo sapiens, UniProt Q9H227); assay: ABP labeling of β-D-glucosidases in HEK293T cell lysate, GBA3
T1 construct: expressed in transfected cells; host or cells: HEK293T (GBA/GBA2 KO background for the fluorogenic assay; endogenous-GBA background with GBA2 and GBA3 overexpressed for ABPP and intact-cell assays)
T1 sequence (Q9H227 1-469): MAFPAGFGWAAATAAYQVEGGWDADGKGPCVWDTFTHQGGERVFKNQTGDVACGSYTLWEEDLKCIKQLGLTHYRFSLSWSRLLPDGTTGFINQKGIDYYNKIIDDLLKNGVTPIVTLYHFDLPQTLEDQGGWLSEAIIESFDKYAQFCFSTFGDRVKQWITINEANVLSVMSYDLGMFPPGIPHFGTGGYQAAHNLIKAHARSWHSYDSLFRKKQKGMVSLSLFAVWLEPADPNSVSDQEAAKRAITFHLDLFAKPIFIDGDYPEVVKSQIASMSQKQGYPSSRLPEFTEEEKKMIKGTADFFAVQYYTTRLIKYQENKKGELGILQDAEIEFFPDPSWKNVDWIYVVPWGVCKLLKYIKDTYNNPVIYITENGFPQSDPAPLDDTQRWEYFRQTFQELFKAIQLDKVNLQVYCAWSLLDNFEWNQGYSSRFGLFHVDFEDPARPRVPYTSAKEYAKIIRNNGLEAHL
Description: (§1) We next investigated, by ABPP, the GBA/GBA2/GBA3 activity and selectivity of β‐D‐xylo‐cyclophellitol aziridine ABPs 6 and 8 in comparison to those of GBA‐specific ABP 9 [31] or ABP 10.
(§2) Figure 4 (A) ABP labeling of β‐D‐glucosidases. A lysate of HEK293T cells expressing human GBA, GBA2 and GBA3 was incubated with indicated ABPs (6, 9 or 10) for 30 min at pH 6.0. Fluorescently labeled proteins were visualized after SDS‐PAGE. (B) Labeling with ABP 6 of wild type or mutant GBA2 (E527G nucleophile mutation and D667G acid/base mutation) expressed in HEK293T cells.
(§3) ABP labeling procedure: Glycosidases were labeled with excess fluorescent ABPs at optimum conditions. […] After ABP incubation, proteins were denatured by boiling the samples with 5× Laemmli buffer (50 % (v/v) 1 M Tris‐HCl, pH 6.8, 50 % (v/v) 100 % glycerol, 10 % (w/v) DTT, 10 % (w/v) SDS, 0.01 % (w/v) bromophenol blue) for 5 min at 98 °C, and separated by electrophoresis on 10 % (w/v) SDS‐PAGE gels running continuously at 90 V. Wet slab‐gels were scanned on fluorescence using the Typhoon FLA 9500 (GE Healthcare) at λEX 473 nm and λEM≥510 nm for green fluorescent ABP 8; and at λEX 635 nm and λEM≥665 nm for ABP 6, 9 and 10. ABP‐emitted fluorescence was quantified using ImageQuant software (GE Healthcare, Chicago, IL, USA) and curve‐fitted using Prism 8.0 (GraphPad Software). […]

GBA2 = target: T2, GBA2 (Homo sapiens, UniProt Q9HCG7); assay: ABP labeling of β-D-glucosidases in HEK293T cell lysate, GBA2
T2 construct: expressed in transfected cells; host or cells: HEK293T (GBA/GBA2 KO background for the fluorogenic assay; endogenous-GBA background with GBA2 and GBA3 overexpressed for ABPP and intact-cell assays)
T2 sequence (Q9HCG7 1-927): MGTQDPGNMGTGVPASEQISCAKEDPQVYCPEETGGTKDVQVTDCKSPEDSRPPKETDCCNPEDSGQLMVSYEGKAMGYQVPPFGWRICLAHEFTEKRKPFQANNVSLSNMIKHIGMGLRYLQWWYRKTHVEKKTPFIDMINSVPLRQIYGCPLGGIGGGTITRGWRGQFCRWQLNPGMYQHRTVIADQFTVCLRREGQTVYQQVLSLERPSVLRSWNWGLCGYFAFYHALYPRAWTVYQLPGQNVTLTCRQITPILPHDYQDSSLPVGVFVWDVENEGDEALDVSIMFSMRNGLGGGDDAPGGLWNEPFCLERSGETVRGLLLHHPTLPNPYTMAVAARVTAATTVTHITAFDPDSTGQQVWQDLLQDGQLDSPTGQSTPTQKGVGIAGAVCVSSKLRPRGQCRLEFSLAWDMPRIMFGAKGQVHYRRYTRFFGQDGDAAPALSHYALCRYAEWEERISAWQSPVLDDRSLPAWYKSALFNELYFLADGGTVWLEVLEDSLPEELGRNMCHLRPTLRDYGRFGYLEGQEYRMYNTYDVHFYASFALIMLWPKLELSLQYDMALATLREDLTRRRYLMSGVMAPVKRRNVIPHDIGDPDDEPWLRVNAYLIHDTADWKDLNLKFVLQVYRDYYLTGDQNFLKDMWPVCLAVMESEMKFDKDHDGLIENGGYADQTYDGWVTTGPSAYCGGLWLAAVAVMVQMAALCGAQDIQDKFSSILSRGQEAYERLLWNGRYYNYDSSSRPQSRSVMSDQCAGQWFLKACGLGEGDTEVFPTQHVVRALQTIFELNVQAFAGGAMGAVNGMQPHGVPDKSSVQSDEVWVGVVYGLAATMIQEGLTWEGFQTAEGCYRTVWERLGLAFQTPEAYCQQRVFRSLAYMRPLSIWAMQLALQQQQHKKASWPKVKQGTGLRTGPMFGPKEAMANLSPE
Description: as §1, §2, §3

GBA = target: T3, GBA (Homo sapiens, UniProt P04062); assay: ABP labeling of β-D-glucosidases in HEK293T cell lysate, GBA
T3 construct: HEK293T cells that contain endogenous GBA; endogenous in cells; host or cells: HEK293T (ATCC CRL-3216) overexpressing GBA2 and GBA3
T3 sequence (P04062 40-536): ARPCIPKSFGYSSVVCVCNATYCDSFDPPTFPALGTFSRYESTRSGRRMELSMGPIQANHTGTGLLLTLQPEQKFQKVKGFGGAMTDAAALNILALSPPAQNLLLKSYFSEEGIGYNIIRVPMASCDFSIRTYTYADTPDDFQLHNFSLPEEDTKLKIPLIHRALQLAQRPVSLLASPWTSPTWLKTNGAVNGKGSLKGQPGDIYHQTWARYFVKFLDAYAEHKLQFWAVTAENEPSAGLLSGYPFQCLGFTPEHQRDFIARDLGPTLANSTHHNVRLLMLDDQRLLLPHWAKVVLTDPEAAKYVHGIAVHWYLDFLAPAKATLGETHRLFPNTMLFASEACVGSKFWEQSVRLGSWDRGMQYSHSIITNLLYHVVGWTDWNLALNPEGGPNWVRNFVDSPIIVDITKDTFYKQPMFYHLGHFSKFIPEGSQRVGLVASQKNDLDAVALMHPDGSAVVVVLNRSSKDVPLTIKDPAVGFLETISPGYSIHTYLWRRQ
Description: as §1, §2, §3

SMILES	labeling of GBA3 compared with ABP 10 (GBA3)	labeling pattern of GBA and GBA2 (GBA2)	selectivity of ABP labeling towards GBA over GBA2 and GBA3 (GBA)
CN1/C(=C/C=C/C=C/C2=[N+](CCCCCC(=O)NCc3cn(CCCCCCCCN4[C@H]5[C@H](O)[C@@H](O)[C@H](O)C[C@H]54)nn3)c3ccccc3C2(C)C)C(C)(C)c2ccccc21 (stereo partly drawn) [ABP 6]	tenfold less efficiently	very similar to that of the broad‐specific β‐D‐glucosidase ABP 10	
CN1/C(=C/C=C/C=C/C2=[N+](CCCCCC(=O)NCc3cn(C[C@@H]4[C@@H](O)[C@H](O)[C@@H](O)[C@@H]5O[C@H]45)nn3)c3ccccc3C2(C)C)C(C)(C)c2ccccc21 [ABP 9, reference compound]			most selective ABP towards GBA over GBA2 and GBA3
